Source: US20120225062A1 (priority 2011, published 2012)

Assays:
[1] = system: KMS11 (human myeloma cell line); test: Cell Proliferation Assay (CellTiter-Glo, 3 days); type: cell-based; conditions: KMS-11, 72 h, KMS11-luc cells
Procedure, shortened: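 EC50 from CellTiter-Glo luminescence after 3-day, 37° C compound treatment of KMS11 cells seeded at 2000 per well in IMDM plus 10% FBS.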

Pim 1 = Pim 1 (Homo sapiens, UniProt P11309); test: Pim 1 AlphaScreen assay (high ATP)
Pim 2 = Pim 2 (Homo sapiens, UniProt Q9P1W9); test: Pim 2 AlphaScreen assay (high ATP)
Pim 2, sequence (Q9P1W9 whole entry): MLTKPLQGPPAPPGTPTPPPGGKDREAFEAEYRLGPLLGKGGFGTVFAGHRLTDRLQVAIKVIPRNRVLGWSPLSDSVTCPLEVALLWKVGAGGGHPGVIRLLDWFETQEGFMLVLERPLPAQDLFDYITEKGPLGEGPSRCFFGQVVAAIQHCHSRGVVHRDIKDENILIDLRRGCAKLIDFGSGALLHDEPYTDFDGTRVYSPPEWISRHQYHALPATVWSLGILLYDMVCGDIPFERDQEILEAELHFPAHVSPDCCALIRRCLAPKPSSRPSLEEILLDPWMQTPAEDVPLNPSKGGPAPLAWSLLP

Pim 3 = Pim 3 (Homo sapiens, UniProt Q86V86); test: Pim 3 AlphaScreen assay (high ATP)
Protocol: The activity of Pim 1, Pim 2, & Pim 3 is measured using a homogeneous bead based system quantifying the amount of phosphorylated peptide substrate resulting from kinase-catalyzed phosphoryl transfer to a peptide substrate. Compounds to be tested are dissolved in 100% DMSO and directly distributed to a white 384-well plate at 0.25 μl per well. […] This is followed by the addition of 5 μl/well of Pim 1, Pim 2 or Pim 3 kinase in assay buffer (concentrations described below). Final assay concentrations (described below) are in 2.5% DMSO. The reactions are performed for ˜2 hours, then stopped by the addition of 10 μl of 0.75 μg/ml anti-phospho Ser/Thr antibody (Cell Signaling), 10 μg/ml Protein A AlphaScreen beads (Perkin Elmer), and 10 μg/ml streptavidin coated AlphaScreen beads in stop/detection buffer (50 mM EDTA, 95 mM Tris, pH=7.5, 0.01% Tween-20). The stopped reactions are incubated overnight in the dark. The phosphorylated peptide is detected via an oxygen anion initiated chemiluminescence/fluorescence cascade using the Envision plate reader (Perkin Elmer).

Pim 1, sequence (P11309 whole entry): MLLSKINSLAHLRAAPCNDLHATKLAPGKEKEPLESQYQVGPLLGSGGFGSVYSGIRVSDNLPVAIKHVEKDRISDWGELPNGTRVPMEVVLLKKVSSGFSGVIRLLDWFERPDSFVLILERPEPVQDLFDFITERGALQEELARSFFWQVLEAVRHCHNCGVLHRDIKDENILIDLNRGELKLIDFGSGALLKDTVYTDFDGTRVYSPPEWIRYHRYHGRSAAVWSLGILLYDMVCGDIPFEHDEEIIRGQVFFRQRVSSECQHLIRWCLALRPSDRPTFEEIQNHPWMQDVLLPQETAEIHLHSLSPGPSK

Structure (SMILES)	EC50 [1] [nM]	IC50 (Pim 1) [nM]	IC50 (Pim 2) [nM]	IC50 (Pim 3) [nM]
COc1cc(F)c(-c2nc(C(=O)Nc3cnccc3N3C[C@@H](N)[C@H](O)[C@@H](C)C3)ccc2F)c(F)c1 [Example 15, N-(4-((3R,4R,5S)-3-amino-4-hydroxy-5-methylpiperidin-1-yl)pyridin-3-yl)-6-(2,6-difluoro-4-methoxyphenyl)-5-fluoropicolinamide]	21	0.02	1.14	0.35
COCCOc1cc(F)c(-c2nc(C(=O)Nc3cnccc3[C@@H]3C[C@H](C)C[C@H](N)C3)ccc2F)c(F)c1 [Example 12, N-(4-((1R,3S,5S)-3-amino-5-methylcyclohexyl)pyridin-3-yl)-6-(2,6-difluoro-4-(2-methoxyethoxy)phenyl)-5-fluoropicolinamide]	120	0.04	2.91	1.39
C[C@H]1CN(c2ccncc2NC(=O)c2ccc(F)c(-c3c(F)cc(S(C)(=O)=O)cc3F)n2)C[C@@H](N)[C@@H]1O [Example 16, N-(4-((3R,4R,5S)-3-amino-4-hydroxy-5-methylpiperidin-1-yl)pyridin-3-yl)-6-(2,6-difluoro-4-(methylsulfonyl)phenyl)-5-fluoropicolinamide]	37	0.08	2.07	2.66
C[C@H]1CN(c2ccncc2NC(=O)c2ccc(F)c(-c3c(F)cc(O[C@@H]4CCCOC4)cc3F)n2)C[C@@H](N)[C@@H]1O [Example 105, N-(4-((3R,4R,5S)-3-amino-4-hydroxy-5-methylpiperidin-1-yl)pyridin-3-yl)-6-(2,6-difluoro-4-((R)-tetrahydro-2H-pyran-3-yloxy)phenyl)-5-fluoropicolinamide]	96	0.01	0.64	0.17
COCCOc1cc(F)c(-c2nc(C(=O)Nc3cnccc3[C@H]3C[C@@H](N)[C@H](O)[C@@H](C)C3)ccc2F)c(F)c1 [Example 24, N-(4-((1R,3R,4R,5S)-3-amino-4-hydroxy-5-methylcyclohexyl)pyridin-3-yl)-6-(2,6-difluoro-4-(2-methoxyethoxy)phenyl)-5-fluoropicolinamide]	72	0.07	5.57	2.46
C[C@@H]1C[C@H](N)C[C@H](c2ccncc2NC(=O)c2ccc(F)c(-c3c(F)cc(OC(F)F)cc3F)n2)C1 [Example 65, N-(4-((1R,3S,5S)-3-amino-5-methylcyclohexyl)pyridin-3-yl)-6-(4-(difluoromethoxy)-2,6-difluorophenyl)-5-fluoropicolinamide]	83	0.01	3.84	1.01
CCC(=O)c1cc(F)c(-c2nc(C(=O)Nc3cnccc3[C@@H]3C[C@H](C)C[C@H](N)C3)ccc2F)c(F)c1 [Example 43, N-(4-((1R,3S,5S)-3-amino-5-methylcyclohexyl)pyridin-3-yl)-6-(2,6-difluoro-4-propionylphenyl)-5-fluoropicolinamide]	43	0.14	15.3	11.4
C[C@H]1C[C@@H](c2ccncc2NC(=O)c2nc(-c3c(F)cc(C4COC4)cc3F)c(F)cc2N)C[C@@H](N)[C@@H]1O [Example 98, 3-amino-N-(4-((1R,3R,4R,5S)-3-amino-4-hydroxy-5-methylcyclohexyl)pyridin-3-yl)-6-(2,6-difluoro-4-(oxetan-3-yl)phenyl)-5-fluoropicolinamide]	40	0.03	1.38	0.53
C[C@@H]1C[C@H](N)C[C@H](c2ccncc2NC(=O)c2ccc(F)c(-c3c(F)cc(O[C@H]4CCCOC4)cc3F)n2)C1 [Example 79, N-(4-((1R,3S,5S)-3-amino-5-methylcyclohexyl)pyridin-3-yl)-6-(2,6-difluoro-4-((S)-tetrahydro-2H-pyran-3-yloxy)phenyl)-5-fluoropicolinamide]	12	0.01	1.08	0.24
COCCOc1cc(F)c(-c2nc(C(=O)Nc3cnccc3[C@H]3C[C@@H](N)[C@@H](O)[C@@H](C)C3)ccc2F)c(F)c1 [Example 124, N-(4-((1R,3R,4S,5S)-3-amino-4-hydroxy-5-methylcyclohexyl)pyridin-3-yl)-6-(2,6-difluoro-4-(2-methoxyethoxy)phenyl)-5-fluoropicolinamide]	119	0.06	7.18	1.72
Cc1cc(F)c(-c2nc(C(=O)Nc3cnccc3N3C[C@@H](N)[C@H](O)[C@@H](C)C3)ccc2F)c(F)c1 [Example 37, N-(4-((3R,4R,5S)-3-amino-4-hydroxy-5-methylpiperidin-1-yl)pyridin-3-yl)-6-(2,6-difluoro-4-methylphenyl)-5-fluoropicolinamide]	13	0.02	0.94	0.28
C[C@H]1C[C@@H](c2ccncc2NC(=O)c2ccc(F)c(-c3c(F)cc(O[C@H]4CCCOC4)cc3F)n2)C[C@@H](N)[C@@H]1O [Example 80, N-(4-((1R,3R,4R,5S)-3-amino-4-hydroxy-5-methylcyclohexyl)pyridin-3-yl)-6-(2,6-difluoro-4-((S)-tetrahydro-2H-pyran-3-yloxy)phenyl)-5-fluoropicolinamide]	24	0.02	2.16	0.58

Next, values leading:

EC50 [1] [nM]	IC50 (Pim 1) [nM]	IC50 (Pim 2) [nM]	IC50 (Pim 3) [nM]	Structure (SMILES)
31	0.02	1.77	0.7	CC(C)[C@@H]1C[C@H](N)C[C@H](c2ccncc2NC(=O)c2ccc(F)c(-c3c(F)cc(C4(O)CCC4)cc3F)n2)C1 [Example 133, N-(4-((1R,3S,5S)-3-amino-5-isopropylcyclohexyl)pyridin-3-yl)-6-(2,6-difluoro-4-(1-hydroxycyclobulyl)phenyl)-5-fluoropicolinamide]
181	0.25	14.2	16	C[C@H]1C[C@@H](c2ccncc2NC(=O)c2ccc(F)c(-c3c(F)cc4c(c3F)OCC[C@]4(C)O)n2)C[C@@H](N)[C@@H]1O [Example 237, N-(4-((1R,3R,4R,5S)-3-amino-4-hydroxy-5-methylcyclohexyl)pyridin-3-yl)-6-((S)-6,8-difluoro-4-hydroxy-4-methylchroman-7-yl)-5-fluoropicolinamide]
50	0.03	3.77	1.03	COc1ccc(F)c(-c2nc(C(=O)Nc3cnccc3[C@@H]3C[C@H](C)C[C@H](N)C3)ccc2F)c1F [Example 212, N-(4-((1R,3S,5S)-3-amino-5-methylcyclohexyl)pyridin-3-yl)-6-(2,6-difluoro-3-methoxyphenyl)-5-fluoropicolinamide]
115	0.01	0.38	0.14	C[C@H]1CN(c2ccncc2NC(=O)c2ccc(F)c(-c3c(F)cc(C4CCS(=O)(=O)CC4)cc3F)n2)C[C@@H](N)[C@@H]1O [Example 204, N-(4-((3R,4R,5S)-3-amino-4-hydroxy-5-methylpiperidin-1-yl)pyridin-3-yl)-6-(4-(1,1-dioxidotetrahydro-2H-thiopyran-4-yl)-2,6-difluorophenyl)-5-fluoropicolinamide]
619	0.05	2.56	1.43	C[C@H]1C[C@@H](c2ccncc2NC(=O)c2ccc(F)c(-c3c(F)cc(OCC(F)(F)F)cc3F)n2)C[C@@H](N)[C@@H]1O [Example 197, N-(4-((1R,3R,4R,5S)-3-amino-4-hydroxy-5-methylcyclohexyl)pyridin-3-yl)-6-(2,6-difluoro-4-(2,2,2-trifluoroethoxy)phenyl)-5-fluoropicolinamide]
23	0.02	1.67	0.43	C[C@@H]1C[C@H](N)C[C@H](c2ccncc2NC(=O)c2ccc(F)c(-c3c(F)cc4c(c3F)OCC[C@@]4(C)O)n2)C1 [Example 240, N-(4-((1R,3S,5S)-3-amino-5-methylcyclohexyl)pyridin-3-yl)-6-((R)-6,8-difluoro-4-hydroxy-4-methylchroman-7-yl)-5-fluoropicolinamide]
64	0.02	1.33	1.15	C[C@@H]1C[C@H](N)C[C@H](c2ccncc2NC(=O)c2ccc(F)c(-c3c(F)cc(C4(F)CCOCC4)cc3F)n2)C1 [Example 126, N-(4-((1R,3S,5S)-3-amino-5-methylcyclohexyl)pyridin-3-yl)-6-(216-difluoro-4-(4-fluorotetrahydro-2H-pyran-4-yl)phenyl)-5-fluoropicolinamide]
527	0.04	3	1.32	C[C@H]1C[C@@H](c2ccncc2NC(=O)c2ccc(F)c(-c3c(F)cc(OCC4(C#N)CCOCC4)cc3F)n2)C[C@@H](N)[C@@H]1O [Example 186, N-(4-((1R,3R,4R,5S)-3-amino-4-hydroxy-5-methylcyclohexyl)pyridin-3-yl)-6-(4-((4-cyanotetrahydro-2H-pyran-4-yl)methoxy)-2,6-difluorophenyl)-5-fluoropicolinamide]
244	0.03	3.5	1.99	CCOC(C)(C)c1cc(F)c(-c2nc(C(=O)Nc3cnccc3[C@@H]3C[C@H](C)C[C@H](N)C3)ccc2F)c(F)c1 [Example 145, N-(4-((1R,3S,5S)-3-amino-5-methylcyclohexyl)pyridin-3-yl)-6-(4-(2-ethoxypropan-2-yl)-2,6-difluorophenyl)-5-fluoropicolinamide]
